Data as given in article PMC9019904, “AD Informer Set: Chemical tools to facilitate Alzheimer's disease drug discovery” (Alzheimer's & Dementia : Translational Research & Clinical …, 2022).
Values after ≈ are worked out from the molar mass of the structure shown. Where a SMILES comes first, the peptide text is derived from it. [ ]: non-standard residue; d: D form. dHyp = O=C(O)[C@H]1C[C@H](O)CN1

What was measured:
[1] = physchem
[2] = Kinetic solubility in aqueous buffer pH 7.4 by total chemiluminescent nitrogen determination (Analiza); settings: for solubility kinetic: aqueous buffer, pH 7.4, aqueous buffer, kinetic from dmso stock
[3] = test system: BV2 (mouse microglia) cell line; test: pHrodo-myelin phagocytosis/cell viability high content imaging assay: viability (cell count, nuclear area, nuclear intensity)
How it was run: (§1)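 Viability was read as total cell count per well by high-content imaging, with mean average nuclear intensity per cell profiling apoptosis (rise early, fall late). Compounds were given at 10 μM for 48 h, pHrodo-myelin being added for the final 20 h. Values are means of two points as % untreated control.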

[4] = test system: cellular system; settings: published cellular activity at 10 μM; cited from earlier work
[5] = test system: HMC3 (human microglia) cell line; test: pHrodo-myelin phagocytosis/cell viability high content imaging assay: phagocytosis signal; format: cell-based
How it was run: (§2)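 Mouse BV2 and human HMC3 microglia given pHrodo-myelin; phagocytosis and cell viability imaged together by high content imaging about 22 hours after myelin addition. Three measurements extracted, including intensity increase and decrease marking early and later apoptosis.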

[6] = test system: BV2 (mouse microglia) cell line; test: as above; format: cell-based
How it was run: as §2

[7] = test system: HMC3 (human microglia) cell line; test: pHrodo-myelin phagocytosis/cell viability high content imaging assay: viability (cell count, nuclear area, nuclear intensity); settings: HMC3 cells, 10 μM, cell count <70% control
How it was run: as §1

[8] = pH 7.4, aqueous buffer, kinetic from dmso stock
[9] = BV2 cells, 10 μM, cell count <70% control

Row | SMILES | solubility kinetic [1, 8] | solubility kinetic [2] | Mouse microglial cytotoxicity at 10 μM (<70% control) [3, 9] | Reported as cell active (<10 μM) [4] | Inhibition of human microglial phagocytosis at 10 μM (<70% control) ([5]; HMC3 cells, 10 μM) | further results
1 | CCCCc1nc(Cl)c(CO)n1Cc1ccc(-c2ccccc2-c2nn[nH]n2)cc1 [Losartan] | 117 µM (≈ 49.6 µg/mL) |  |  |  |  | 
2 | CCOC(=O)CS(=O)(=O)c1ccc([C@@H](CO)NC(=O)c2cc3c(Cl)c(Cl)c(C)cc3n2C)cc1 [BI-4916] |  | < 1.1 µM | Y (The compound was found to be cytotoxic (cell count threshold: <70% control) when murine immortalized microglial cells were dosed at 10 μM (Y: yes)) | Y (Published data supports that the compound is active in a cellular system when dosed at 10 μM (Y/N)) | Y (The compound was found to inhibit phagocytosis (response threshold: <70% control) when human immortalized microglial cells were dosed at 10 μM (Y: yes)) | Stimulation of mouse microglial phagocytosis at 10 μM (>150% control) ([6]; BV2 cells, 10 μM): Y (The compound was found to stimulate phagocytosis (response threshold: >150% control) when murine immortalized microglial cells were dosed at 10 μM (Y: yes))
3 | CC(=O)N1CCC(NC(=O)NC23CC4CC(CC(C4)C2)C3)CC1 [AR9281] | 163 µM (≈ 51.9 µg/mL) |  |  |  |  | Stimulation of mouse microglial phagocytosis at 10 μM (>150% control) ([6]; BV2, 10 μM): Y (The compound was found to stimulate phagocytosis (response threshold: >150% control) when murine immortalized microglial cells were dosed at 10 μM (Y: yes))
4 | COC(=O)C1=C(C)NC2=C(C(=O)c3ccccc32)C1c1ccccc1OCc1ccccc1F (stereo not shown) [5408-1697] |  | < 2.1 µM |  | Y (Published data supports that the compound is active in a cellular system when dosed at 10 μM (Y/N)) | Y (The compound was found to inhibit phagocytosis (response threshold: <70% control) when human immortalized microglial cells were dosed at 10 μM (Y: yes)) | Stimulation of mouse microglial phagocytosis at 10 μM (>150% control) ([6]; BV2 cells, 10 μM): Y (The compound was found to stimulate phagocytosis (response threshold: >150% control) when murine immortalized microglial cells were dosed at 10 μM (Y: yes))
5 | COS(=O)(=O)[O-].C[n+]1c2ccccc2nc2ccccc21 [Phenazine methosulfate] |  |  | Y (The compound was found to be cytotoxic (cell count threshold: <70% control) when murine immortalized microglial cells were dosed at 10 μM (Y: yes)) | Y (Published data supports that the compound is active in a cellular system when dosed at 10 μM (Y/N)) | Y (The compound was found to inhibit phagocytosis (response threshold: <70% control) when human immortalized microglial cells were dosed at 10 μM (Y: yes)) | Kinetic solubility ([2]; aqueous buffer pH 7.4): 101.8 µM; Human microglial cytotoxicity at 10 μM (<70% control) [7]: Y (The compound was found to be cytotoxic (cell count threshold: <70% control) when human immortalized microglial cells were dosed at 10 μM (Y: yes)); Inhibition of mouse microglial phagocytosis at 10 μM (<70% control) ([6]; BV2 cells, 10 μM): Y (The compound was found to inhibit phagocytosis (response threshold: <70% control) when murine immortalized microglial cells were dosed at 10 μM (Y: yes))
6 | CCCCCCOc1cc2c(cc1N(C)c1ncc(C(=O)O)cn1)C(C)(C)CCC2(C)C [PA 452] |  | 13.9 µM (≈ 6.11 µg/mL) |  | Y (Published data supports that the compound is active in a cellular system when dosed at 10 μM (Y/N)) | Y (The compound was found to inhibit phagocytosis (response threshold: <70% control) when human immortalized microglial cells were dosed at 10 μM (Y: yes)) | Stimulation of mouse microglial phagocytosis at 10 μM (>150% control) ([6]; BV2 cells, 10 μM): Y (The compound was found to stimulate phagocytosis (response threshold: >150% control) when murine immortalized microglial cells were dosed at 10 μM (Y: yes))
7 | CC(C)(C)c1cc(NC(=O)Nc2ccc(-c3cn4c(n3)sc3cc(OCCN5CCOCC5)ccc34)cc2)no1 [Quizartinib] | 0.9 µM (≈ 0.505 µg/mL) |  |  |  |  | 
8 | Cc1cc(NC(=O)Cc2ccc(F)c(Cl)c2)n(C2CCCCC2)n1 [VU0810464] | 108 µM (≈ 37.9 µg/mL) |  |  |  |  | 
9 | CC(C)CCN1c2nc(Nc3cc(F)c(O)c(F)c3)ncc2N(C)C(=O)C1C (stereo not shown) [BI-D1870] |  | 0.8 µM (≈ 0.313 µg/mL) | Y (The compound was found to be cytotoxic (cell count threshold: <70% control) when murine immortalized microglial cells were dosed at 10 μM (Y: yes)) | Y (Published data supports that the compound is active in a cellular system when dosed at 10 μM (Y/N)) |  | Human microglial cytotoxicity at 10 μM (<70% control) [7]: Y (The compound was found to be cytotoxic (cell count threshold: <70% control) when human immortalized microglial cells were dosed at 10 μM (Y: yes)); Stimulation of human microglial phagocytosis at 10 μM (>150% control) ([5]; HMC3 cells, 10 μM): Y (The compound was found to stimulate phagocytosis (response threshold: >150% control) when human immortalized microglial cells were dosed at 10 μM (Y: yes))
10 | COc1ccc(CC[C@@H](OC(=O)[C@@H]2CCCCN2C(=O)[C@H](c2cc(OC)c(OC)c(OC)c2)C2CCCCC2)c2cccc(OCC(=O)O)c2)cc1OC [SAFit1] | 87.3 µM (≈ 65.3 µg/mL) |  |  |  |  | Stimulation of mouse microglial phagocytosis at 10 μM (>150% control) ([6]; 10 μM, BV2): Y (The compound was found to stimulate phagocytosis (response threshold: >150% control) when murine immortalized microglial cells were dosed at 10 μM (Y: yes))
11 | CCOC(=O)c1sc(NC(=O)c2ccco2)c(SC#N)c1C [CBR-5884] |  | 2.8 µM (≈ 0.942 µg/mL) | Y (The compound was found to be cytotoxic (cell count threshold: <70% control) when murine immortalized microglial cells were dosed at 10 μM (Y: yes)) | N (tested/active at 15 μM) | Y (The compound was found to inhibit phagocytosis (response threshold: <70% control) when human immortalized microglial cells were dosed at 10 μM (Y: yes)) | Stimulation of mouse microglial phagocytosis at 10 μM (>150% control) ([6]; BV2 cells, 10 μM): Y (The compound was found to stimulate phagocytosis (response threshold: >150% control) when murine immortalized microglial cells were dosed at 10 μM (Y: yes))
12 | CCCN(CC1CC1)c1nc(C)nc(Nc2c(Cl)cc(Cl)cc2Cl)c1Cl.Cl [NBI 27914 (Compound 7a)] | < 0.5 µM |  |  |  |  | Mouse microglial cytotoxicity at 10 μM (<70% control) ([3]; BV2, 10 μM): Y (The compound was found to be cytotoxic (cell count threshold: <70% control) when murine immortalized microglial cells were dosed at 10 μM (Y: yes)); Stimulation of mouse microglial phagocytosis at 10 μM (>150% control) ([6]; BV2, 10 μM): Y (The compound was found to stimulate phagocytosis (response threshold: >150% control) when murine immortalized microglial cells were dosed at 10 μM (Y: yes))
13 | CNC(=O)c1c(F)cccc1Nc1nc(Nc2cc3c(cc2OC)CCN3C(=O)CN(C)C)nc2[nH]ccc12 [GSK1838705A] | 1 µM (≈ 0.533 µg/mL) |  |  |  |  | Mouse microglial cytotoxicity at 10 μM (<70% control) ([3]; BV2, 10 μM): Y (The compound was found to be cytotoxic (cell count threshold: <70% control) when murine immortalized microglial cells were dosed at 10 μM (Y: yes)); Inhibition of human microglial phagocytosis at 10 μM (<70% control) ([5]; HMC3, 10 μM): Y (The compound was found to inhibit phagocytosis (response threshold: <70% control) when human immortalized microglial cells were dosed at 10 μM (Y: yes))
14 | O=C(Nc1c[nH]nc1-c1nc2ccc(CN3CCOCC3)cc2[nH]1)NC1CC1 [AT9283] |  | 144 µM (≈ 55.1 µg/mL) | Y (The compound was found to be cytotoxic (cell count threshold: <70% control) when murine immortalized microglial cells were dosed at 10 μM (Y: yes)) | Y (Published data supports that the compound is active in a cellular system when dosed at 10 μM (Y/N)) | Y (The compound was found to inhibit phagocytosis (response threshold: <70% control) when human immortalized microglial cells were dosed at 10 μM (Y: yes)) | Inhibition of mouse microglial phagocytosis at 10 μM (<70% control) ([6]; BV2 cells, 10 μM): Y (The compound was found to inhibit phagocytosis (response threshold: <70% control) when murine immortalized microglial cells were dosed at 10 μM (Y: yes))
15 | CC(=O)N[C@H](Cc1ccc(O)cc1)C(=O)N1CCC[C@@H]1C(=O)N1C[C@@H](O)C[C@@H]1C(=O)NCC(=O)N[C@H](C)C(=O)NCC(N)=O [Rotigaptide] (Ac-[dY][dP][dHyp]G[dA]G-NH2) |  |  |  |  |  | solubility kinetic ([1]; pH 7.4): 177 µM (≈ 110 µg/mL)
16 | COc1cc(/C=C/c2ccc(NC(=O)/C=C/c3cc(OC)c(OC)c(OC)c3)cc2)cc(OC)c1 [STAT3-IN-3] |  | 4.9 µM (≈ 2.33 µg/mL) | Y (The compound was found to be cytotoxic (cell count threshold: <70% control) when murine immortalized microglial cells were dosed at 10 μM (Y: yes)) | Y (Published data supports that the compound is active in a cellular system when dosed at 10 μM (Y/N)) | Y (The compound was found to inhibit phagocytosis (response threshold: <70% control) when human immortalized microglial cells were dosed at 10 μM (Y: yes)) | Inhibition of mouse microglial phagocytosis at 10 μM (<70% control) ([6]; BV2 cells, 10 μM): Y (The compound was found to inhibit phagocytosis (response threshold: <70% control) when murine immortalized microglial cells were dosed at 10 μM (Y: yes))
17 | COc1cc(Nc2ncc(F)c(Nc3ccc4c(n3)N(COP(=O)(O)O)C(=O)C(C)(C)O4)n2)cc(OC)c1OC [Fostamatinib] |  | 161 µM (≈ 93.5 µg/mL) | Y (The compound was found to be cytotoxic (cell count threshold: <70% control) when murine immortalized microglial cells were dosed at 10 μM (Y: yes)) | Y (Published data supports that the compound is active in a cellular system when dosed at 10 μM (Y/N)) |  | Stimulation of human microglial phagocytosis at 10 μM (>150% control) ([5]; HMC3 cells, 10 μM): Y (The compound was found to stimulate phagocytosis (response threshold: >150% control) when human immortalized microglial cells were dosed at 10 μM (Y: yes)); Inhibition of mouse microglial phagocytosis at 10 μM (<70% control) ([6]; BV2 cells, 10 μM): Y (The compound was found to inhibit phagocytosis (response threshold: <70% control) when murine immortalized microglial cells were dosed at 10 μM (Y: yes))
